According to patent US8153633B2, “Phthalazine compounds, compositions and methods of use” (Amgen Inc., priority 2007, dated 2012):

What was measured:
[1] = system: Gli1 expression (Smoothened signaling); assay: Gli1 expression in mouse skin after depilation and oral compound dosing (quantitative PCR relative to RGS); type: in vivo; conditions: five days after depilation, six hours after administration
Protocol: Paladini et al. (2005) J Invest Dermatol 125:638-646. For this work, the mice were deplilated using wax strips (Sally Hansen, Del Laboratories, Inc, Uniondale, N.Y.). Five days after depilation, mice were dosed orally with compound or vehicle. Six hours after compound administration, animals were euthanized and skin samples were collected. RNA was purified from the skin samples using a mirVana miRNA Isolation kit (Ambion, Austin, Tex.). cDNA was prepared from the RNA, and Gli1 expression levels were determined by real-time, quantitative PCR relative to the RGS reference gene.

[2] = system: medulloblastomas from Ptch+/−p53−/− mice; assay: Mouse medulloblastoma allograft model, antitumor activity in vivo; conditions: 10 mg/kg, one dose per day, after 6 days of treatment; tumors of average size 200 mm^3 at start
Protocol: Briefly, medulloblastomas from Ptch+/−p53−/− mice were subcutaneously implanted into immunocompromised mice, and subsequent passages of these tumor allografts were used for compound testing. For compound studies, animals bearing tumors with an average size of 200 mm^3 were treated with vehicle or 10 mg/kg compound 23 on a schedule of one dose per day for a total of 6 days.

SMILES | [Gli1/RGS ratio compound]/[Gli1/RGS ratio vehicle] ([1]; 100 mg/kg oral) | [Gli1/RGS ratio compound]/[Gli1/RGS ratio vehicle] ([1]; 50 mg/kg oral) | reduction in tumor size relative to vehicle control [2]
C[C@H]1CN(c2nnc(-c3ccccc3)c3ccccc23)CCN1C(=O)c1ccccc1 [Compound 5, (S)-(2-methyl-4-(4-phenylphthalazin-1-yl)piperazin-1-yl)(phenyl)-methanone] | 0.41 |  | 
C[C@@H]1CN(C(=O)c2ccccc2)CCN1c1nnc(-c2ccc(C(F)(F)F)cc2)c2ccccc12 [Compound 23, (R)-(3-methyl-4-(4-(4-(trifluoromethyl)-phenyl)-phthalazin-1-yl)piperazin-1-yl)(phenyl)-methanone] |  | 0.33 | > 99%
